# Test results published in paper PMC3130785, “Small Compound 6-O-Angeloylplenolin Induces Mitotic Arrest and Exhibits Therapeutic Potentials in Multiple Myeloma” (PLoS ONE, 2011).
# Columns and labels:
# MM.1S = assay: MTT cell proliferation assay; format: cell-based; details: Homo sapiens, MM1.S, 48 h
# Method: U266, RPMI 8226 cells (1×10^4), primary CD138+ cells, PBMCs (5×10^4), and BMSCs (1×10^4) were cultured in 96-well dishes and incubated without or with 6-OAP at indicated concentration for 48 h. MM.1S and MM.1R cells (2×10^4) were seeded into 96-well dishes and pre-cultured for 24 h, then treated with 6-OAP for 48 h. Cell proliferation was determined by MTT assay. Cell viability was estimated by trypan blue dye exclusion.
# U266 cells = assay: U266 xenograft murine model; format: in vivo, BALB/c nude mice
# Method: All mice used in this study were bred and maintained in a specific pathogen-free environment. BALB/c nude mice (6 to 7 weeks old) were obtained from the Shanghai Laboratory Animal Center (Shanghai, China), and maintained and monitored in a specific pathogen-free environment. All animal studies were conducted according to protocols approved by the Animal Ethics Committee of our institute. The mice were injected subcutaneously with 1×10^7 U266 cells in 100 µL RPMI-1640 media into the right flank. Treatments were started when the tumors reached a palpable size. The control group received vehicle (0.8% DMSO/18% Cremophor/8% Ethanol in normal saline), while the other two groups received intraperitoneally injection of 6-OAP (50 or 75 mg/kg per day, five times a week for 4 weeks). Caliper measurements of the longest perpendicular tumor diameters were performed twice a week to estimate the tumor volume, using the following formula: 4π/3× (width/2)^2× (length/2), representing the 3-dimensional volume of an ellipse. Animals were sacrificed when tumors reached 2 cm or if the mice appeared moribund to prevent unnecessary morbidity to the mice. At the time of the animals' death, tumors were excised; cells were separated and subjected to immunofluorescence analysis or lyzed for Western blotting.
# Figure 6 In vivo therapeutic efficacy of 6-OAP on human MM murine model. Nude mice were given subcutaneous inoculations in the right flank with 1×10^7 U266 cells. When the tumors reached a palpable size, the mice were treated intraperitoneally with vehicle or 6-OAP (50 or 75 mg/kg, 5 times a week for 4 weeks). […] (C) Survival curve of control and 6-OAP-treated mice. […] (E) Tumor samples were harvested from mice treated with vehicle or 50 mg/kg 6-OAP and subjected to immunofluorescence analysis using an anti-α-tubulin antibody and DAPI. (F) Tumor tissues were harvested from mice treated with vehicle or 50 mg/kg 6-OAP, whole-tissue lysates were subjected to Western blotting using an anti-cyclin B1 antibody. (G) The concentration-time profiles of 6-OAP after intravenous (30 mg/kg) or intraperitoneal (40 mg/kg) injection of 6-OAP in Sprague-Dawley rats.
# Staphylococcus aureus = system: Staphylococcus aureus; parameters: method as in PMID 9461679, PMID 8657743, PMID 12521264; details: cited from earlier work
# [1] = system: ubiquitinated cyclin B1 (Ub-cyclin B1); assay: Immunoprecipitation and Western blotting; format: cell-based, human; details: U266 and MM.1S; 24 h
# Method: (§1) Cell pellets were lysed in RIPA buffer containing 50 mM Tris pH 8.0, 150 mM NaCl, 0.1% SDS, 0.5% deoxycholate, 1% NP-40, 1 mM DTT, 1 mM NaF, 1 mM sodium vanadate, and protease inhibitors cocktail (Sigma). For immunoprecipitations, cells were lysed on ice for 15 minutes in RIPA buffer. Lysates were centrifuged. The supernatant was incubated with indicated antibodies overnight, after which protein A/G Plus beads (Santa Cruz Biotechnology) were added and incubated for 3 h. The beads were washed 4 times in RIPA buffer. Then the beads were resuspended in 1× sample buffer and boiled for 3 min. Protein extracts were quantitated and loaded on 8% to 12% sodium dodecyl sulfate polyacrylamide gel, electrophoresed, and transferred to a nitrocellulose membrane (Whatman). The membrane was incubated with primary antibody, washed, and incubated with horseradish peroxidase (HRP)–conjugated secondary antibody (Pierce). Detection was performed by using a chemiluminescent western detection kit (Cell Signaling). […]
# (§2) Figure 3 6-OAP accumulates cyclin B1 which is required for mitotic arrest. […] After co-incubation with 6-OAP for 18 h, the cells were then harvested and detected by Leica DMI 400B microscope (D), or analyzed by flow cytometry for the cell cycle distribution (E). To evaluate cell growth, the cells were treated with 6-OAP for indicated time points and analyzed by trypan blue exclusion assay (F). […]
# Mad2 bound Cdc20 = assay: Immunoprecipitation and Western blotting; format: cell-based, human; details: U266 and MM.1S cells; 24 h
# Method: as §1, §2
smiles,measurement,setting,value
"CC=C(C)C(=O)OC1C2C(CC(C)C3C=CC(=O)C31C)OC(=O)C2C (stereo not drawn) [6-OAP, 6-O-angeloylplenolin]",IC50,MM.1S,6.1 ± 0.4 µM
same,cyclin B1 in tumor tissues,"U266 cells; 50 mg/kg, Western blotting, vs control mice",accumulated
same,spindle formation in tumor samples,"U266 cells; 50 mg/kg, immunofluorescence, anti-α-tubulin",apparent spindle formation was detected
same,tumor growth,"U266 cells; 50 and 75 mg/kg ip, five times a week for four weeks, vs vehicle, P<.0001",significantly inhibited tumor growth
same,body weight of mice,"U266 cells; 50 or 75 mg/kg ip, 4 weeks",did not reduce body weight
same,survival,"U266 cells; 50 or 75 mg/kg ip, vs vehicle control",prolonged
same,antibacterial activity,Staphylococcus aureus,exhibit antibacterial activity
same,ubiquitinated cyclin B1,[1],markedly decreased
same,Mad2-Cdc20 binding,Mad2 bound Cdc20,enhanced the binding affinity
